Earlier results, collected in patent publication US20250000096A1, “ANTIMICROBIAL COMPOSITION WITH A LOW ODOR” (EVONIK CORPORATION, priority 2021, published 2025).

Conditions: background statement

## CC(=O)O [acetic acid]
  limit for olfactory detection: 0.15 ppm
